Experimental findings from PubChem BioAssay (NCI) are described below.

What all share (experiment): inhibition of tumour cell growth, NCI panel, 48 h
Assay [1] has as its system ACHN renal.
Assay [2] concerns DU-145 prostate.
Assay [3] concerns IGROV1 ovarian.
Assay [4] deals with M14 melanoma.
In assay [5] the test system is MOLT-4 leukemia.
Assay [6] has as its system NCI-H23 lung.
The subject of assay [7] is NCI-H522 lung.
Assay [8] deals with SK-OV-3 ovarian.
Assay [9] relates to SNB-19 CNS.
Assay [10] deals with UACC-257 melanoma.

“And” between values parts separate entries of the source, which are not always exact repeats. Equal entries are not always repeated.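 Five concentrations, 48 hours, 96-well plates. GI50 marks 50% less growth. At the TGI there is no net growth.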

On to `CCOC(=O)c1c(-c2ccc(OC)cc2)c(C#N)c2c(C#N)c(N)nn2c1N`, for which the GI50 in assay [1] was 4.02 µM; in [2], 4.93 µM; in assay [3], 3.48 µM; in assay [4] it was 3.26 µM; in assay [5], 4.07 µM; in [6] it was 4.69 µM. Moreover, the GI50 in [7] was 2.55 µM; in [8] it was 3.49 µM; in [9], 4.01 µM; in [10], 8.18 µM. Besides, the TGI was 48.5 µM in [1]; greater than 100 µM in assay [2]; greater than 100 µM in assay [3]; 25.9 µM in [4]; greater than 100 µM in assay [5]; greater than 100 µM in assay [6]. For the same compound, the TGI was 12.5 µM in [7], 19.1 µM in [8], 22.5 µM in assay [9] and greater than 100 µM in assay [10].
`CCN(Cc1ccc(F)cc1)c1ccc(CO)c(Br)c1`: the GI50 in [1] was 10.2 µM; in [2] it was 16.5 µM; in assay [3] it was 0.0402 µM; in [4] it was 16.5 µM; in assay [5] it was 18.8 µM; in assay [6], 15.6 µM. For the same compound, the GI50 in [7] is 13.8 µM; in assay [8], 5.18 µM; in assay [9], 15.7 µM; in assay [10] it was 0.0406 µM. The TGI in assay [1] is 42 µM; in assay [2], greater than 53.1 µM; in [3] it was 0.202 µM; in [4], greater than 55.1 µM; in [5] it was 53.1 µM; in [6], greater than 56.1 µM. The TGI was determined as 30.2 µM in [7], 21.9 µM in assay [8], 44.2 µM in assay [9] and 0.185 µM in assay [10].
For the compound `COc1ccc(-c2nsc3c2NC(=O)CC3c2cccc(OC)c2)cc1` (centres undefined), the GI50 was 4.87 µM in assay [1]; 2.59 µM in assay [2]; 2.18 µM in assay [3]; 0.613 µM in assay [4]; 2.18 µM in [5]; 2.59 µM in [6]. Further, the GI50 was 0.702 µM in assay [7], 1.45 µM in assay [8], 3.47 µM in assay [9] and 12.9 µM in [10]. The TGI in assay [1] was greater than 100 µM; in assay [2], 19.1 µM; in assay [3], greater than 100 µM; in assay [4], greater than 100 µM; in [5], greater than 100 µM; in assay [6] it was greater than 100 µM. For the same compound, the TGI in [7] was 5.28 µM; in [8], 7.43 µM; in [9] it was greater than 100 µM; in [10], greater than 100 µM.
Turning to `CSc1nc(NC2OC(COC(C)=O)C(OC(C)=O)C(OC(C)=O)C2OC(C)=O)c(N=CC=Nc2c(NC3OC(COC(C)=O)C(OC(C)=O)C(OC(C)=O)C3OC(C)=O)nc(SC)n(C)c2=O)c(=O)n1C` (centres undefined), the GI50 in assay [1] was 27.8 µM; in [2] it was greater than 50 µM; in assay [3], greater than 50 µM; in [4] it was greater than 50 µM; in assay [5], greater than 50 µM; in [6] it was greater than 50 µM. In addition, the GI50 in [7] was greater than 50 µM; in assay [8], greater than 50 µM; in [9], 21.1 µM; in [10], greater than 50 µM. The TGI was 50 µM and > 100 µM in assay [1]; greater than 100 µM in assay [2]; greater than 100 µM in assay [3]; greater than 50 µM in [4]; greater than 100 µM in assay [5]; greater than 100 µM in assay [6]. For the same compound, the TGI in [7] is greater than 100 µM; in assay [8], > 50 µM and 80.1 µM; in assay [9], 50 µM and 92.1 µM; in assay [10], greater than 100 µM.
In the case of `Cc1cc2cc3c(=O)[nH]c(=O)[nH]c3nc2cc1C`, the TGI in assay [1], in assay [2], in [3], in assay [4], in [5] and in assay [6] was greater than 100 µM each time. The TGI in assay [7], in assay [8], in assay [9] and in assay [10] was greater than 100 µM each time.
For the compound `C=CCc1ccc(O)c(-c2ccc(O)c(CC=C)c2)c1`, the GI50 in [1] was 15.8 µM; in [2] it was 15.8 µM; in [3], 5.67 µM; in [4], 21.4 µM; in [5] it was 4.94 µM; in [6], 16.3 µM. In addition, the GI50 is 10.4 µM in [7], 22.1 µM in [8], 21.1 µM in assay [9] and 17.1 µM in [10]. Further, the TGI in [1] was 30.6 µM; in [2] it was 30.9 µM; in [3], 49.5 µM; in assay [4], 48.4 µM; in assay [5], greater than 39.9 µM; in assay [6], 34.4 µM. In addition, the TGI came to 26.2 µM in assay [7], 50.1 µM in assay [8], 37 µM in [9] and 40.6 µM in [10].
As for `O=[N+]([O-])c1ccc(CI)cc1`, the GI50 is 1.96 µM in assay [1]; 2.78 µM in assay [2]; 4.31 µM in [3]; 3.38 µM in assay [4]; 1.32 µM in assay [5]; 3.32 µM in [6]. Moreover, the GI50 is 1.41 µM in assay [7], 4.53 µM in assay [8], 3.03 µM in [9] and 3.47 µM in assay [10]. The TGI in assay [1] amounted to 4.12 µM; in assay [2], 7.08 µM; in assay [3], 14.8 µM; in [4], 13.5 µM; in [5], 7.21 µM; in assay [6] it was 12.4 µM. For the same compound, the TGI worked out at 3.02 µM in assay [7], 15.5 µM in [8], 14.4 µM in assay [9] and 15.5 µM in [10].
On to `C[C@H]1CN[C@@H]2[C@@H](C)[C@H]3[C@@H](C[C@H]4[C@@H]5CC[C@H]6C[C@@H](N)CC[C@]6(C)[C@H]5CC[C@]34C)O[C@@]2(O)C1`, for which the TGI is 9.3 µM in assay [1]; 16.9 µM in [2]; 9.66 µM in [3]; 4.73 µM in [4]; 7.77 µM in assay [5]; 26.9 µM in assay [6]. Besides, the TGI stood at 5.91 µM in assay [7], 19.7 µM in assay [8], 6.96 µM in assay [9] and 3.74 µM in [10].
In the case of `COc1ccc(C2=C(c3ccc(OC)cc3)C(=O)N3CCCC3C2)cc1` (centres undefined), the GI50 in assay [1] is 15 µM; in [2], 13.5 µM; in assay [3], 18.1 µM; in assay [4], 28 µM; in assay [5] it was 15.5 µM; in assay [6], 41.9 µM. Also, the GI50 in assay [7] was 14.1 µM; in assay [8] it was 26.4 µM; in [9], 45.6 µM; in assay [10] it was 32.9 µM. Also, the TGI in assay [1], in assay [2], in assay [3], in [4], in [5] and in [6] was greater than 100 µM throughout. Besides, the TGI in [7] was 96.8 µM; in assay [8], greater than 100 µM; in [9] it was greater than 100 µM; in assay [10] it was greater than 100 µM.
Take `Nc1c(C(=O)c2ccccc2)cnn1-c1ccc(F)cc1`: the GI50 in assay [1], in [2], in [3], in assay [4], in assay [5] and in assay [6] was greater than 25 µM throughout. Moreover, the GI50 in [7], in [8], in assay [9] and in assay [10] was greater than 25 µM throughout. Also, the TGI in [1], in assay [2], in assay [3], in assay [4], in assay [5] and in [6] was greater than 25 µM in each case. Besides, the TGI in assay [7], in assay [8], in [9] and in assay [10] was greater than 25 µM in each case.
Take `CN(C)CCC(=O)C(=Cc1ccc(O)cc1)C(=O)CCN(C)C`: the GI50 in assay [1] is greater than 100 µM; in assay [2] it was greater than 100 µM; in assay [3] it was greater than 100 µM; in assay [4], greater than 100 µM; in assay [5] it was 80 µM; in assay [6] it was greater than 100 µM. Further, the GI50 is 16.4 µM in assay [7], greater than 100 µM in assay [8], greater than 100 µM in assay [9] and greater than 100 µM in [10]. For the same compound, the TGI in [1], in assay [2], in [3], in [4], in [5] and in assay [6] was greater than 100 µM each time. Further, the TGI in [7] is 38.9 µM; in assay [8] it was greater than 100 µM; in assay [9] it was greater than 100 µM; in [10], greater than 100 µM.
For the compound `CN(C)C(=S)Sc1ccc([N+](=O)[O-])cc1[N+](=O)[O-]`, the GI50 in assay [1] is 1.67 µM; in [2] it was 2.59 µM; in assay [3], 1.26 µM; in [4], 2.5 µM; in assay [5], 2.04 µM; in assay [6], 2.93 µM. The GI50 in [7] was 0.482 µM; in assay [8], 12 µM; in [9] it was 11 µM; in assay [10], 1.75 µM. Besides, the TGI in assay [1] was 3.05 µM; in assay [2], 6.89 µM; in [3] it was 13.1 µM; in [4], 9.46 µM; in assay [5] it was greater than 42 µM; in [6], 11.6 µM. Also, the TGI in [7] came to 1.6 µM; in [8], 31.2 µM; in assay [9], 25.1 µM; in [10], 4.9 µM.
Regarding `O=C(O)c1ccc(C(=O)O)c2c(C(=O)O)ccc(C(=O)O)c12`, the TGI in [1], in assay [2], in assay [3], in assay [4], in assay [5] and in assay [6] was greater than 100 µM each time. Also, the TGI in assay [7], in assay [8], in assay [9] and in [10] was greater than 100 µM each time.
For the compound `CC(C)=CCc1cc2c(cc1O)OC[C@H]1c3cc4c(cc3O[C@@H]21)OCO4`, the TGI in assay [1] is greater than 100 µM; in assay [2], greater than 100 µM; in assay [3], greater than 100 µM; in [4], greater than 100 µM; in assay [5] it was 57.4 µM; in [6], 96.3 µM. The TGI in assay [7], in [8], in [9] and in assay [10] was greater than 100 µM in each case.
`CCc1ccc(/C=C/c2ccc(O)c3ncccc23)[n+](C)c1`: the GI50 in assay [1] was greater than 61.1 µM; in assay [2] it was 4.96 µM; in [3], 11.4 µM; in assay [5], 3.72 µM; in [6] it was 4.2 µM; in assay [7], 2.3 µM. Moreover, the GI50 in [8] is 26.9 µM; in [9] it was 11.5 µM; in [10], 16.9 µM. Further, the TGI in [1], in [2], in [3], in [4], in assay [5] and in [6] was greater than 100 µM throughout. The TGI in [7], in [8], in assay [9] and in assay [10] was greater than 100 µM each time.
In the case of `CC1(C)N=C(N)N=C(N)N1c1ccc(CCCCc2ccc(Cl)c(S(=O)(=O)F)c2)c(Cl)c1`, the GI50 in assay [1] is 6.56 µM; in assay [2] it was 0.769 µM; in assay [3] it was 0.117 µM; in assay [4], 0.756 µM; in [5], 0.622 µM; in assay [6] it was 0.843 µM. Moreover, the GI50 was 0.71 µM in [7], 6.79 µM in assay [8], 3.07 µM in assay [9] and 3.78 µM in [10]. Further, the TGI in assay [1] is 21.1 µM; in assay [2], 16.5 µM; in assay [3], 20.7 µM; in assay [4], greater than 41.2 µM; in assay [5], 14.8 µM; in assay [6], 19 µM. Besides, the TGI in assay [7] was 13.3 µM; in [8], 22.2 µM; in assay [9] it was 20.6 µM; in [10] it was 18.4 µM.
`S=c1[nH]c2c(Cl)c(Cl)c(Cl)c(Cl)c2[nH]1`: the TGI is 40.7 µM in [1]; greater than 100 µM in assay [2]; 37.8 µM in assay [3]; 54.3 µM in [4]; 78 µM in assay [5]; greater than 100 µM in assay [6]. In addition, the TGI in assay [7] was found to be 3.71 µM; in assay [8], 55.3 µM; in [9], 81.3 µM; in assay [10] it was 46.4 µM.
